Experiments:
Type in all cases: functional
[1] = Mortality range of the mice with L1210 leukemia treated with 1.25 mg/kg of dose intraperitoneally with no of mice survived/no of mice treated; 0/8; details: route intraperitoneal
[2] = tested on: Mus musculus; assay: Median survival time of the non surviving mice; treated with 2.5 mg/kg of compound to mice with L1210 leukemia; 11-12
[3] = tested on: Mus musculus; assay: The number of L1210 leukemia mice survived after 30 days with compound in aqueous solution injected by a dose of 5 mg/kg intraperitoneally; 0/10; details: route intraperitoneal
[4] = tested on: Mus musculus; assay: The number of L1210 leukemia mice survived after 30 days with compound injected by a dose of 10 mg/kg intraperitoneally; 8/8; details: route intraperitoneal
[5] = Mortality range of the mice with L1210 leukemia treated with 5 mg/kg of dose intraperitoneally with no of mice survived/no of mice treated; 0/8; details: route intraperitoneal
[6] = tested on: Mus musculus; assay: Median survival time of the non surviving mice; treated with 1.25 mg/kg of compound to mice with L1210 leukemia; 9-11
[7] = tested on: Mus musculus; assay: Anti tumor activity l when treated to mice with L1210 leukemia with 5 mg/kg dose of compound intraperitoneally was expressed as percent of treated to control (T/C %); details: route intraperitoneal
[8] = tested on: Mus musculus; assay: Median survival time of the non surviving mice; treated with 5 mg/kg of compound in olive oil to mice with L1210 leukemia; 16-19
[9] = tested on: Mus musculus; assay: The number of L1210 leukemia mice survived after 60 days with compound in aqueous solution injected by a dose of 5 mg/kg intraperitoneally; 0/10; details: route intraperitoneal
[10] = tested on: Mus musculus; assay: Median survival time of the non surviving mice; treated with 5 mg/kg of compound to mice with L1210 leukemia; 18-24
[11] = tested on: Mus musculus; assay: The number of L1210 leukemia mice survived after 30 days with compound injected by a dose of 2.5 mg/kg intraperitoneally; 0/8; details: route intraperitoneal
[12] = Number of mice died/no of mice treated with 5 mg/kg of compound in aqueous solution intraperitoneally with L1210 leukemia; 0/10; details: route intraperitoneal
[13] = Mortality range of the mice with L1210 leukemia treated with 10 mg/kg of dose intra peritoneally with no of mice survived/no of mice treated; 0/8
[14] = tested on: Mus musculus; assay: Anti tumor activity l when treated to mice with L1210 leukemia with 2.5 mg/kg dose of compound intraperitoneally was expressed as percent of treated to control (T/C %); details: route intraperitoneal
[15] = tested on: Mus musculus; assay: The number of L1210 leukemia mice survived after 30 days with compound injected by a dose of 1.25 mg/kg intraperitoneally; 0/8; details: route intraperitoneal
[16] = tested on: Mus musculus; assay: Anti tumor activity l when treated to mice with L1210 leukemia with 0.625 mg/kg dose of compound intraperitoneally was expressed as percent of treated to control (T/C %); details: route intraperitoneal
[17] = tested on: Mus musculus; assay: The number of L1210 leukemia mice survived after 30 days with compound injected by a dose of 0.625 mg/kg intraperitoneally; 0/8; details: route intraperitoneal
[18] = Mortality range of the mice with L1210 leukemia treated with 2.5 mg/kg of dose intraperitoneally with no of mice survived/no of mice treated; 0/8; details: route intraperitoneal
[19] = tested on: Mus musculus; assay: Anti tumor activity l when treated to mice with L1210 leukemia with 1.25 mg/kg dose of compound intraperitoneally was expressed as percent of treated to control (T/C %); details: route intraperitoneal
[20] = tested on: Mus musculus; assay: Anti tumor activity in olive oil when treated to mice with L1210 leukemia with 5 mg/kg dose of compound intraperitoneally was expressed as percent of treated to control (T/C %); details: route intraperitoneal
[21] = tested on: Mus musculus; assay: The number of L1210 leukemia mice survived after 30 days with compound injected by a dose of 5 mg/kg intraperitoneally; 0/8; details: route intraperitoneal
[22] = Mortality range of the mice with L1210 leukemia treated with 0.625 mg/kg of dose intraperitoneally with no of mice survived/no of mice treated; 0/8; details: route intraperitoneal
[23] = tested on: Mus musculus; assay: Median survival time of the non surviving mice; treated with 0.625 mg/kg of compound to mice with L1210 leukemia; 9-10
[24] = Ratio of mice died to that of mice treated with 20 mg/kg of compound in olive oil intraperitoneally with Lewis lung; 0/20; details: route intraperitoneal
[25] = tested on: Mus musculus; assay: The number of Lewis lung mice survived after 30 days with compound in olive oil injected by a dose of 20 mg/kg intraperitoneally; 13/20; details: route intraperitoneal
[26] = tested on: Mus musculus; assay: Median survival time of the non surviving mice; treated with 20 mg/kg of compound in olive oil to mice with Lewis lung; 21-41
[27] = tested on: Mus musculus; assay: Median survival time of the non surviving mice; treated with 20 mg/kg of compound in olive oil to mice with B16 Melanocarcinoma; 23-45
[28] = tested on: Mus musculus; assay: The number of L1210 Leukemia mice survived after 60 days with compound in olive oil injected by a dose of 20 mg/kg intraperitoneally; 3/15; details: route intraperitoneal
[29] = tested on: Mus musculus; assay: The number of B16 melanocarcinoma mice survived after 60 days with compound in olive oil injected by a dose of 20 mg/kg intraperitoneally; 1/20; details: route intraperitoneal
[30] = tested on: Mus musculus; assay: The number of L1210 Leukemia mice survived after 30 days with compound in olive oil injected by a dose of 20 mg/kg intraperitoneally; 4/15; details: route intraperitoneal
[31] = tested on: Mus musculus; assay: Median survival time of the non surviving mice; treated with 20 mg/kg of compound in olive oil to mice with L1210 leukemia tumor; 21-42
[32] = Ratio of mice died to that of mice treated with 20 mg/kg of compound in olive oil intraperitoneally with L1210 leukemia tumor; 0/15; details: route intraperitoneal
[33] = Ratio of mice died to that of mice treated with 20 mg/kg of compound in olive oil intraperitoneally with B16 Melanocarcinoma; 0/20; details: route intraperitoneal
[34] = tested on: Mus musculus; assay: The number of B16 melanocarcinoma mice survived after 30 days with compound in olive oil injected by a dose of 20 mg/kg intraperitoneally; 9/20; details: route intraperitoneal
[35] = tested on: Mus musculus; assay: The number of Lewis lung mice survived after 60 days with compound in olive oil injected by a dose of 20 mg/kg intraperitoneally; 8/20; details: route intraperitoneal
[36] = tested on: Mus musculus; assay: Anti tumor activity in olive oil when treated to mice with Lewis lung with 20 mg/kg dose of compound intraperitoneally was expressed as percent of treated to control (T/C %); details: route intraperitoneal
[37] = tested on: Mus musculus; assay: Anti tumor activity in olive oil when treated to mice with B16 melanocarcinoma with 20 mg/kg dose of compound intraperitoneally was expressed as percent of treated to control (T/C %); details: route intraperitoneal
[38] = tested on: Mus musculus; assay: Anti tumor activity in olive oil when treated to mice with L1210 leukemia with 20 mg/kg dose of compound intraperitoneally was expressed as percent of treated to control (T/C %); details: route intraperitoneal
[39] = tested on: Mus musculus; assay: Median survival time of the non surviving mice; treated with 20 mg/kg of compound in olive oil to mice with Lewis lung; 19-46
[40] = tested on: Mus musculus; assay: The number of B16 melanocarcinoma mice survived after 60 days with compound in olive oil injected by a dose of 20 mg/kg intraperitoneally; 0/20; details: route intraperitoneal
[41] = tested on: Mus musculus; assay: The number of L1210 Leukemia mice survived after 60 days with compound in olive oil injected by a dose of 20 mg/kg intraperitoneally; 15/15; details: route intraperitoneal
[42] = tested on: Mus musculus; assay: The number of B16 melanocarcinoma mice survived after 30 days with compound in olive oil injected by a dose of 20 mg/kg intraperitoneally; 1/20; details: route intraperitoneal
[43] = tested on: Mus musculus; assay: The number of Lewis lung mice survived after 60 days with compound in olive oil injected by a dose of 20 mg/kg intraperitoneally; 6/20; details: route intraperitoneal
[44] = tested on: Mus musculus; assay: The number of L1210 Leukemia mice survived after 30 days with compound in olive oil injected by a dose of 20 mg/kg intraperitoneally; 15/15; details: route intraperitoneal
[45] = tested on: Mus musculus; assay: Median survival time of the non surviving mice; treated with 20 mg/kg of compound in olive oil to mice with B16 Melanocarcinoma; 20-32
[46] = tested on: Mus musculus; assay: The number of Lewis lung mice survived after 30 days with compound in olive oil injected by a dose of 20 mg/kg intraperitoneally; 14/20; details: route intraperitoneal

O=NN(CCCl)C(=O)NCCCl [CARMUSTINE]
Ratio [1]: 0 | Median survival time [2]: 11.5 | Survivals [3]: 0 | Survivals [4]: 8 | Ratio [5]: 0 | Median survival time [6]: 9.9 | T/C [7]: 220% | Median survival time [8]: 16.75 | Survivals [9]: 0 | Median survival time [10]: 19.8 | Survivals [11]: 0 | Ratio [12]: 0 | Ratio [13]: 0 | T/C [14]: 128% | Survivals [15]: 0 | T/C [16]: 104% | Survivals [17]: 0 | Ratio [18]: 0 | T/C [19]: 110% | T/C [20]: 177% | Survivals [21]: 0 | Ratio [22]: 0 | Median survival time [23]: 9.4

COC1CC(O)C(O)C(CNC(=O)N(CCCl)N=O)O1 (stereo unspecified)
Ratio [24]: 0 | Survivals [25]: 13 | Median survival time [26]: 39 | Median survival time [27]: 30 | Survivals [28]: 3 | Survivals [29]: 1 | Survivals [30]: 4 | Median survival time [31]: 23.5 | Ratio [32]: 0 | Ratio [33]: 0 | Survivals [34]: 9 | Survivals [35]: 8 | T/C [36]: 313% | T/C [37]: 215% | T/C [38]: 263%

COC1CC(NC(=O)N(CCCl)N=O)C(OC)C(C)O1 (stereo unspecified)
Ratio [24]: 0 | Median survival time [39]: 35 | Survivals [40]: 0 | Survivals [41]: 15 | Survivals [42]: 1 | Ratio [32]: 0 | Survivals [43]: 6 | Ratio [33]: 0 | Survivals [44]: 15 | Median survival time [45]: 23.62 | Survivals [46]: 14 | T/C [36]: 281% | T/C [37]: 170%

Source: ChEMBL document CHEMBL1124317, “Rationale for the synthesis and preliminary biological evaluation of highly active new antitumor nitrosoureido sugars” (J Med Chem, 1989)
